According to ChEMBL document CHEMBL3885881, “DrugMatrix”:

Species: Rattus norvegicus
Test: DrugMatrix - Regimen: Daily Repeat
Type: toxicity, organism-based, Sprague-Dawley
Set-up: regimen Daily Repeat, gender Male, age 6-8 weeks
Details: in vivo, po, route oral GAVAGE, […]; for ABSOLUTE BASOPHIL / BASOPHIL / NUCLEATED RED BLOOD CELLS / ABSOLUTE EOSINOPHIL / ABSOLUTE LYMPHOCYTE / ABSOLUTE MONOCYTE / ABSOLUTE SEGMENTED NEUTROPHIL / EOSINOPHIL / ERYTHROCYTE COUNT / HEMATOCRIT / HEMOGLOBIN / LEUKOCYTE COUNT / LYMPHOCYTE / MEAN CORPUSCULAR HEMOGLOBIN / MEAN CORPUSCULAR HEMOGLOBIN CONCENTRATION / MEAN CORPUSCULAR VOLUME / MONOCYTE / NEUTROPHIL / PLATELET COUNT: tissue Blood; for ALANINE AMINOTRANSFERASE / ALBUMIN / ALKALINE PHOSPHATASE / ASPARTATE AMINOTRANSFERASE / BLOOD UREA NITROGEN / CARBON DIOXIDE / CHLORIDE / CHOLESTEROL / CREATINE PHOSPHOKINASE / CREATININE / GLUCOSE / LACTATE DEHYDROGENASE / LIPASE / PHOSPHORUS / POTASSIUM / SODIUM / TOTAL BILIRUBIN / TOTAL PROTEIN / URIC ACID: tissue Plasma
[1] = 0 mg/kg, 72 h, dose level Control, time 3 day
[2] = 0 mg/kg, 120 h, dose level Control, time 5 day
[3] = 52 mg/kg, 72 h, dose level Low, time 3 day
[4] = 52 mg/kg, 120 h, dose level Low, time 5 day
[5] = 89 mg/kg, 72 h, dose level M1, time 3 day
[6] = 89 mg/kg, 120 h, dose level M1, time 5 day

Clc1ccccc1C(c1ccccc1)(c1ccccc1)n1ccnc1 [CLOTRIMAZOLE]
ABSOLUTE BASOPHIL [1]: 0 CELLS/uL | BASOPHIL [1]: 0% | NUCLEATED RED BLOOD CELLS [1]: 0 /100WBC | ABSOLUTE BASOPHIL [2]: 0 CELLS/uL | BASOPHIL [2]: 0% | ABSOLUTE BASOPHIL [3]: 0 CELLS/uL | ABSOLUTE EOSINOPHIL [3]: 0 CELLS/uL | ABSOLUTE LYMPHOCYTE [3]: 7378.33 CELLS/uL | ABSOLUTE MONOCYTE [3]: 76.67 CELLS/uL | ABSOLUTE SEGMENTED NEUTROPHIL [3]: 611.67 CELLS/uL | BASOPHIL [3]: 0% | EOSINOPHIL [3]: 0% | ERYTHROCYTE COUNT [3]: 4.96 x10E6/uL | HEMATOCRIT [3]: 32.7% | HEMOGLOBIN [3]: 12.97 G/DL | LEUKOCYTE COUNT [3]: 8.07 x10E3/uL | LYMPHOCYTE [3]: 91.33% | MEAN CORPUSCULAR HEMOGLOBIN [3]: 26.17 pg | MEAN CORPUSCULAR HEMOGLOBIN CONCENTRATION [3]: 39.67 G/DL | MEAN CORPUSCULAR VOLUME [3]: 65.97 fL | MONOCYTE [3]: 1% | NEUTROPHIL [3]: 7.67% | NUCLEATED RED BLOOD CELLS [3]: 0 /100WBC | PLATELET COUNT [3]: 996.33 x10E3/uL | ALANINE AMINOTRANSFERASE [3]: 116 u/L | ALBUMIN [3]: 3.73 G/DL | ALKALINE PHOSPHATASE [3]: 475.33 u/L | ASPARTATE AMINOTRANSFERASE [3]: 102.67 u/L | BLOOD UREA NITROGEN [3]: 13.33 mg/dL | CARBON DIOXIDE [3]: 38 mmol/L | CHLORIDE [3]: 99 MEQ/L | CHOLESTEROL [3]: 69.33 mg/dL | CREATINE PHOSPHOKINASE [3]: 256 u/L | CREATININE [3]: 0.12 mg/dL | GLUCOSE [3]: 158 mg/dL | LACTATE DEHYDROGENASE [3]: 99 u/L | LIPASE [3]: 11 u/L | PHOSPHORUS [3]: 9.1 mg/dL | POTASSIUM [3]: 5.46 MEQ/L | SODIUM [3]: 142.67 MEQ/L | TOTAL BILIRUBIN [3]: 0.17 mg/dL | TOTAL PROTEIN [3]: 5.43 G/DL | URIC ACID [3]: 0.57 mg/dL | ABSOLUTE BASOPHIL [4]: 0 CELLS/uL | ABSOLUTE EOSINOPHIL [4]: 0 CELLS/uL | ABSOLUTE LYMPHOCYTE [4]: 8088.33 CELLS/uL | ABSOLUTE MONOCYTE [4]: 127.33 CELLS/uL | ABSOLUTE SEGMENTED NEUTROPHIL [4]: 651 CELLS/uL | BASOPHIL [4]: 0% | EOSINOPHIL [4]: 0% | ERYTHROCYTE COUNT [4]: 5.31 x10E6/uL | HEMATOCRIT [4]: 34.07% | HEMOGLOBIN [4]: 13.3 G/DL | LEUKOCYTE COUNT [4]: 8.87 x10E3/uL | LYMPHOCYTE [4]: 91.67% | MEAN CORPUSCULAR HEMOGLOBIN [4]: 25.1 pg | MEAN CORPUSCULAR HEMOGLOBIN CONCENTRATION [4]: 39.1 G/DL | MEAN CORPUSCULAR VOLUME [4]: 64.2 fL | MONOCYTE [4]: 1.33% | NEUTROPHIL [4]: 7% | NUCLEATED RED BLOOD CELLS [4]: 0 /100WBC | PLATELET COUNT [4]: 1063.67 x10E3/uL | ALANINE AMINOTRANSFERASE [4]: 68 u/L | ALBUMIN [4]: 3.9 G/DL | ALKALINE PHOSPHATASE [4]: 421.33 u/L | ASPARTATE AMINOTRANSFERASE [4]: 83.33 u/L | BLOOD UREA NITROGEN [4]: 13.33 mg/dL | CARBON DIOXIDE [4]: 27.33 mmol/L | CHLORIDE [4]: 104.33 MEQ/L | CHOLESTEROL [4]: 79.67 mg/dL | CREATINE PHOSPHOKINASE [4]: 203.67 u/L | CREATININE [4]: 0.34 mg/dL | GLUCOSE [4]: 183 mg/dL | LACTATE DEHYDROGENASE [4]: 97.67 u/L | LIPASE [4]: 12.67 u/L | PHOSPHORUS [4]: 12.3 mg/dL | POTASSIUM [4]: 5.8 MEQ/L | SODIUM [4]: 144.6 MEQ/L | TOTAL BILIRUBIN [4]: 0.1 mg/dL | TOTAL PROTEIN [4]: 6.03 G/DL | URIC ACID [4]: 0.63 mg/dL | ABSOLUTE BASOPHIL [5]: 0 CELLS/uL | ABSOLUTE EOSINOPHIL [5]: 25.67 CELLS/uL | ABSOLUTE LYMPHOCYTE [5]: 8596 CELLS/uL | ABSOLUTE MONOCYTE [5]: 0 CELLS/uL | ABSOLUTE SEGMENTED NEUTROPHIL [5]: 345 CELLS/uL | BASOPHIL [5]: 0% | EOSINOPHIL [5]: 0.33% | ERYTHROCYTE COUNT [5]: 5.65 x10E6/uL | HEMATOCRIT [5]: 35.6% | HEMOGLOBIN [5]: 13.1 G/DL | LEUKOCYTE COUNT [5]: 8.97 x10E3/uL | LYMPHOCYTE [5]: 95.33% | MEAN CORPUSCULAR HEMOGLOBIN [5]: 23.17 pg | MEAN CORPUSCULAR HEMOGLOBIN CONCENTRATION [5]: 36.8 G/DL | MEAN CORPUSCULAR VOLUME [5]: 63.03 fL | MONOCYTE [5]: 0% | NEUTROPHIL [5]: 4.33% | NUCLEATED RED BLOOD CELLS [5]: 0 /100WBC | PLATELET COUNT [5]: 1000.33 x10E3/uL | ALANINE AMINOTRANSFERASE [5]: 74.67 u/L | ALBUMIN [5]: 3.87 G/DL | ALKALINE PHOSPHATASE [5]: 348.33 u/L | ASPARTATE AMINOTRANSFERASE [5]: 101.33 u/L | BLOOD UREA NITROGEN [5]: 15.67 mg/dL | CARBON DIOXIDE [5]: 31.33 mmol/L | CHLORIDE [5]: 99.67 MEQ/L | CHOLESTEROL [5]: 51 mg/dL | CREATINE PHOSPHOKINASE [5]: 324.67 u/L | CREATININE [5]: 0.17 mg/dL | GLUCOSE [5]: 143.67 mg/dL | LACTATE DEHYDROGENASE [5]: 156.33 u/L | LIPASE [5]: 11 u/L | PHOSPHORUS [5]: 10.37 mg/dL | POTASSIUM [5]: 5.81 MEQ/L | SODIUM [5]: 144 MEQ/L | TOTAL BILIRUBIN [5]: 0.13 mg/dL | TOTAL PROTEIN [5]: 5.63 G/DL | URIC ACID [5]: 0.4 mg/dL | ABSOLUTE BASOPHIL [6]: 0 CELLS/uL | ABSOLUTE EOSINOPHIL [6]: 0 CELLS/uL | ABSOLUTE LYMPHOCYTE [6]: 14137.33 CELLS/uL | ABSOLUTE MONOCYTE [6]: 157.33 CELLS/uL | ABSOLUTE SEGMENTED NEUTROPHIL [6]: 1305.33 CELLS/uL | BASOPHIL [6]: 0% | EOSINOPHIL [6]: 0% | ERYTHROCYTE COUNT [6]: 5.79 x10E6/uL | HEMATOCRIT [6]: 36.4% | HEMOGLOBIN [6]: 13.37 G/DL | LEUKOCYTE COUNT [6]: 15.6 x10E3/uL | LYMPHOCYTE [6]: 91% | MEAN CORPUSCULAR HEMOGLOBIN [6]: 23.1 pg | MEAN CORPUSCULAR HEMOGLOBIN CONCENTRATION [6]: 36.73 G/DL | MEAN CORPUSCULAR VOLUME [6]: 62.87 fL | MONOCYTE [6]: 1% | NEUTROPHIL [6]: 8% | NUCLEATED RED BLOOD CELLS [6]: 0 /100WBC | PLATELET COUNT [6]: 1140.67 x10E3/uL | ALANINE AMINOTRANSFERASE [6]: 77.33 u/L | ALBUMIN [6]: 4.17 G/DL | ALKALINE PHOSPHATASE [6]: 461 u/L | ASPARTATE AMINOTRANSFERASE [6]: 103 u/L | BLOOD UREA NITROGEN [6]: 13.67 mg/dL | CARBON DIOXIDE [6]: 23.67 mmol/L | CHLORIDE [6]: 102 MEQ/L | CHOLESTEROL [6]: 58 mg/dL | CREATINE PHOSPHOKINASE [6]: 255 u/L | CREATININE [6]: 0.13 mg/dL | GLUCOSE [6]: 97.33 mg/dL | LACTATE DEHYDROGENASE [6]: 293 u/L | LIPASE [6]: 38.67 u/L | PHOSPHORUS [6]: 9.33 mg/dL | POTASSIUM [6]: 7.02 MEQ/L | SODIUM [6]: 147.95 MEQ/L | TOTAL BILIRUBIN [6]: 0.33 mg/dL | TOTAL PROTEIN [6]: 6.23 G/DL | URIC ACID [6]: 1.27 mg/dL
